Laboratory results reported in patent US7902224B2, “Tetrahydro-naphthalene derivatives as glucocorticoid receptor modulators” (Glaxo Group Limited, priority 2004, dated 2011).

Key:
NFkB activity = test: Glucocorticoid mediated transrepression of NFkB activity (A549 ELAM promoter alkaline phosphatase reporter, TNFα stimulated); type: cell-based; settings: A549 cells, 3 ng/ml human recombinant TNFα, 16 hours; read-out: pIC50 NFkB assay (converted)
Source text: Glucocorticoid mediated Transrepression of NFkB activity.
Human A549 lung epithelial cells were engineered to contain a secreted placental alkaline phosphatase gene under the control of the distal region of the NFkB dependent ELAM promoter as previously described in Ray, K. P., Farrow, S., Daly, M., Talabot, F. and Searle, N. “Induction of the E-selectin promoter by interleukin 1 and tumour necrosis factor alpha, and inhibition by glucocorticoids” Biochemical Journal. 1997 328 707-15.
Compounds were solvated and diluted in DMSO, and transferred directly into assay plates such that the final concentration of DMSO was 0.7%. Following the addition of cells (40K per well), plates were incubated for 1 hr prior to the addition of 3 ng/ml human recombinant TNFα. Following continued incubation for 16 hours, alkaline phosphatase activity was determined by measuring the change in optical density at 405 nm with time following the addition of 0.7 volumes of assay buffer (1 mg/ml p-nitrophenylphosphate dissolved in 1 M diethanolamine, 0.28M NaCl, 0.5 mM MgCl2).

glucocorticoid receptor = target: T1, glucocorticoid receptor (Homo sapiens, UniProt P04150); test: Glucocorticoid receptor binding assay (fluorescence polarisation competition); settings: displacement of fluorescent glucocorticoid, 22° C., 2 hours; read-out: pIC50 glucocorticoid receptor binding assay (converted)
T1 construct: purchased Pan Vera (Madison, Wis., USA)
T1 sequence (P04150 1-777): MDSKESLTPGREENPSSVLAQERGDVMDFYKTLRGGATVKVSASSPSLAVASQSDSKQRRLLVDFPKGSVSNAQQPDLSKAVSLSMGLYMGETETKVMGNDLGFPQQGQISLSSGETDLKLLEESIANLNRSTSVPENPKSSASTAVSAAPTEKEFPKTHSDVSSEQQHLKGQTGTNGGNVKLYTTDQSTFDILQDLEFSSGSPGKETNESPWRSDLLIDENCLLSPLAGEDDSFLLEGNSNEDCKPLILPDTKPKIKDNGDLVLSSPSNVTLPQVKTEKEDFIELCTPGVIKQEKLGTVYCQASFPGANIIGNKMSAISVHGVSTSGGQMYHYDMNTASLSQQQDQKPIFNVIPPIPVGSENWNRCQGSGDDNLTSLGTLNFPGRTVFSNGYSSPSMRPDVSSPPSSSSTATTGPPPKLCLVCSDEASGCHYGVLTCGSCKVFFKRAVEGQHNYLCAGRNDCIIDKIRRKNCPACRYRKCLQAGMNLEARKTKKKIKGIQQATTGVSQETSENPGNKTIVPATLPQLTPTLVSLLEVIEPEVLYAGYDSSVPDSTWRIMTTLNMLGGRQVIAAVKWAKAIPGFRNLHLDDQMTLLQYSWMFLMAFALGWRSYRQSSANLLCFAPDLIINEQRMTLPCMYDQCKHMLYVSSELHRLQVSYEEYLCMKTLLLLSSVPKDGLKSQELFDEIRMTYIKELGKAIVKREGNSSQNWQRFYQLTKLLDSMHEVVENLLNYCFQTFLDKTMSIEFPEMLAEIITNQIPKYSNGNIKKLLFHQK
Experimental: Glucocorticoid Receptor Binding Assay
The ability of compounds to bind to the glucocorticoid receptor was determined by assessing their ability to compete with fluorescent-labelled glucocortioid using a kit supplied by Pan Vera (Madison, Wis., USA) or using in house reagents. Compounds were solvated and diluted in DMSO, and transferred directly into assay plates. Fluorescent glucocorticoid and partially purified glucocorticoid receptor with a stabilisation peptide were added to the plates and incubated at 22° C. for 2 hours in the dark. Binding of the compound was assessed by analysing the displacement of fluorescent ligand by measuring the decrease in fluorescence polarisation signal from the mixture.

[1] = test system: MMTV driven gene expression; test: Glucocorticoid mediated transactivation of MMTV driven gene expression (luciferase reporter); type: cell-based, Human; settings: A549 or MG63 cells, 6 hr incubation
Source text: Glucocorticoid Mediated Transactivation of MMTV Driven Gene Expression
Human A549 lung epithelial cells or human MG63 osteosarcoma were engineered to contain a renialla luciferase gene under the control of the distal region of the LTR from the mouse mammary tumour virus as previously described (Austin, R. H., Maschera, B., Walker, A., Fairbairn, L., Meldrum, E., Farrow, S. and Uings, I. J. Mometasone furoate is a less specific glucocorticoid than fluticasone propionate. European Respiratory Journal 2002 20 1386-1392).
Compounds were solvated and diluted in DMSO, and transferred directly into assay plates such that the final concentration of DMSO was 0.7%. Following the addition of cells (40K per well), plates were incubated for 6 hr. Luciferase activity was determined using the Firelight kit (Packard, Pangbourne, UK).

Compound | IC50 (NFkB activity) [nM] | IC50 (glucocorticoid receptor) [nM] | efficacy in the MMTV transactivation assay compared to the NFkB assay [1]
CC1(CC(O)(CNc2cccc3ncccc23)C(F)(F)F)CCCc2ccccc21 (single isomer, unassigned) [Example 1-D1E1, 1,1,1-Trifluoro-3-(1-methyl-1,2,3,4-tetrahydro-1-naphthalenyl)-2-[(5-guinolinylamino)methyl]-2-propanol] | < 31.6 | < 100 | reduced efficacy
Cc1ccc2c(NCC(O)(CC3(C)CCCc4ccccc43)C(F)(F)F)cccc2n1 (single isomer, unassigned) [Example 2-D1, 1,1,1-Trifluoro-3-[(2-methyl-5-quinolinyl)amino]-2-[(1-methyl-1,2,3,4-tetrahydro-1-naphthalenyl)methyl]-2-propanol] | < 31.6 | < 100 | reduced efficacy
Cc1ccc2c(NCC(O)(CC3(C)CCCc4ccccc43)C(F)(F)F)cccc2n1 (single isomer, unassigned) [Example 2-D1E1, 1,1,1-Trifluoro-3-[(2-methyl-5-quinolinyl)amino]-2-[(1-methyl-1,2,3,4-tetrahydro-1-naphthalenyl)methyl]-2-propanol] |  |  | reduced efficacy
Cc1ccc2c(NCC(O)(CC3(C)CCCc4ccccc43)C(F)(F)F)cccc2n1 (single isomer, unassigned) [Example 2-D2, 1,1,1-Trifluoro-3-[(2-methyl-5-quinolinyl)amino]-2-[(1-methyl-1,2,3,4-tetrahydro-1-naphthalenyl)methyl]-2-propanol] |  |  | reduced efficacy
Cc1ccc2c(NCC(O)(CC3(C)CCCc4ccccc43)C(F)(F)F)cccc2n1 (single isomer, unassigned) [Example 2-D2E1, 1,1,1-Trifluoro-3-[(2-methyl-5-quinolinyl)amino]-2-[(1-methyl-1,2,3,4-tetrahydro-1-naphthalenyl)methyl]-2-propanol] |  |  | reduced efficacy
Cc1ccc2c(NCC(O)(CC3(C)CCCc4ccccc43)C(F)(F)F)cccc2n1 (single isomer, unassigned) [Example 2-D2E2, 1,1,1-Trifluoro-3-[(2-methyl-5-quinolinyl)amino]-2-[(1-methyl-1,2,3,4-tetrahydro-1-naphthalenyl)methyl]-2-propanol] |  |  | reduced efficacy
CC1(CC(O)(CNc2cccc3cnccc23)C(F)(F)F)CCCc2ccccc21 (single isomer, unassigned) [Example 3-D1E2, 1,1,1-Trifluoro-3-(5-isoguinolinylamino)-2-[(1-methyl-1,2,3,4-tetrahydro-1-naphthalenyl)methyl]-2-propanol] | < 31.6 |  | reduced efficacy
CC1(CC(O)(CNc2cccc3cnccc23)C(F)(F)F)CCCc2ccccc21 (single isomer, unassigned) [Example 3-D2E1, 1,1,1-Trifluoro-3-(5-isoguinolinylamino)-2-[(1-methyl-1,2,3,4-tetrahydro-1-naphthalenyl)methyl]-2-propanol] |  | < 100 | reduced efficacy
CCC1(CC(O)(CNc2cccc3cnccc23)C(F)(F)F)CCCc2ccccc21 (single isomer, unassigned) [Example 4-D1, 3-(1-Ethyl-1,2,3,4-tetrahydro-1-naphthalenyl)-1,1,1-trifluoro-2-[(5-isoquinolinylamino)methyl]-2-propanol] |  | < 100 | reduced efficacy
CCC1(CC(O)(CNc2cccc3cnccc23)C(F)(F)F)CCCc2ccccc21 (single isomer, unassigned) [Example 4-D1E2, 3-(1-Ethyl-1,2,3,4-tetrahydro-1-naphthalenyl)-1,1,1-trifluoro-2-[(5-isoquinolinylamino)methyl]-2-propanol] | < 31.6 |  | reduced efficacy
CCC1(CC(O)(CNc2cccc3nc(C)ccc23)C(F)(F)F)CCCc2ccccc21 (single isomer, unassigned) [Example 5-D1, 3-(1-Ethyl-1,2,3,4-tetrahydro-1-naphthalenyl)-1,1,1-trifluoro-2-[[(2-methyl-5-quinolinyl)amino]methyl]-2-propanol] | < 31.6 | < 100 | reduced efficacy
CCC1(CC(O)(CNc2cccc3nc(C)ccc23)C(F)(F)F)CCCc2ccccc21 (single isomer, unassigned) [Example 5-D1E1, 3-(1-Ethyl-1,2,3,4-tetrahydro-1-naphthalenyl)-1,1,1-trifluoro-2-[[(2-methyl-5-quinolinyl)amino]methyl]-2-propanol] |  |  | reduced efficacy
CCC1(CC(O)(CNc2cccc3nc(C)ccc23)C(F)(F)F)CCCc2ccccc21 (single isomer, unassigned) [Example 5-D2, 3-(1-Ethyl-1,2,3,4-tetrahydro-1-naphthalenyl)-1,1,1-trifluoro-2-[[(2-methyl-5-quinolinyl)amino]methyl]-2-propanol] |  |  | reduced efficacy
CCC1(CC(O)(CNc2cccc3nc(C)ccc23)C(F)(F)F)CCCc2ccccc21 (single isomer, unassigned) [Example 5-D2E1, 3-(1-Ethyl-1,2,3,4-tetrahydro-1-naphthalenyl)-1,1,1-trifluoro-2-[[(2-methyl-5-quinolinyl)amino]methyl]-2-propanol] |  |  | reduced efficacy
CC1(CC(O)(CNc2cccc3ncccc23)C(F)(F)F)CCCc2ccccc21 (stereo not shown) [Example 1-D1, 1,1,1-Trifluoro-3-(1-methyl-1,2,3,4-tetrahydro-1-naphthalenyl)-2-[(5-guinolinylamino)methyl]-2-propanol] | < 31.6 | < 100 | reduced efficacy
CC1(CC(O)(CNc2cccc3cnccc23)C(F)(F)F)CCCc2ccccc21 (stereo not shown) [Example 3-D1, 1,1,1-Trifluoro-3-(5-isoguinolinylamino)-2-[(1-methyl-1,2,3,4-tetrahydro-1-naphthalenyl)methyl]-2-propanol] | < 31.6 | < 100 | reduced efficacy
CC1(CC(O)(CNc2cccc3cnccc23)C(F)(F)F)CCCc2ccccc21 (stereo not shown) [Example 3-D2, 1,1,1-Trifluoro-3-(5-isoguinolinylamino)-2-[(1-methyl-1,2,3,4-tetrahydro-1-naphthalenyl)methyl]-2-propanol] |  |  | reduced efficacy
CCC1(CC(O)(CNc2cccc3ncccc23)C(F)(F)F)CCCc2ccccc21 (stereo not shown) [Example 6-D1, 3-(1-Ethyl-1,2,3,4-tetrahydro-1-naphthalenyl)-1,1,1-trifluoro-2-[(5-guinolinylamino)methyl]-2-propanol] | < 31.6 | < 100 | reduced efficacy
